The experiment relates to RS4; 11 with G101V mutation. Briefly: In vitro anti-proliferation assay (ATPlite luminescence) in BCL-2-dependent ALL cell line RS4;11 with G101V mutation. It is filed as cell-based. To be noted: read-out: RS411-G101V IC50. Summed up:
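IC50 came from luminescent ATP quantification (ATPlite) following cell lysis. Compound dose ranges were applied for roughly 72 h to about 1×10^4 G101V-mutant RS4;11 cells per well, in 10% FBS medium.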
On the technique in general: In ATP-based viability assays light output follows the ATP content of the culture.

The mark [1] stands for this setting: cellular anti-proliferative IC50, about 72 hours, medium with 10% FBS, ATPlite.

Structures can show the parent of a compound that is named as a salt. Where two headings read alike, the source gives them in different places.

One may read the IC50 as the concentration that inhibits the measured activity by half. On to `CC(C)Oc1ccccc1[C@@H]1CN(Cc2ccc(C(C)(C)C)nc2)CCN1C1CC2(CCN(c3ccc(C(=O)NS(=O)(=O)c4cc5c(c([N+](=O)[O-])c4)N[C@H](C4CCOCC4)CO5)c(N4c5cc6cc[nH]c6nc5O[C@H]5COCC[C@@H]54)c3)CC2)C1` [Example 256, 4-(2-((R)-4-((6-(tert-butyl)pyridin-3-yl)methyl)-2-(2-isopropoxyphenyl)piperazin-1-yl)-7-azaspiro[3.5]nonan-7-yl)-N-(((R)-5-nitro-3-(tetrahydro-2H-pyran-4-yl)-3,4-dihydro-2H-benzo[b][1,4]oxazin-7-yl)sulfonyl)-2-((5aS,9aR)-6,7,9,9a-tetrahydro-1H-pyrano[3,4-b]pyrrolo[3′,2′:5,6]pyrido[3,2-e][1,4]oxazin-5(5aH)-yl)benzamide], for which the IC50 (Homo sapiens, RS4-11, 72 h) was 11.8 nM. For `CC(C)Oc1ccccc1[C@H]1CN(C2CCC(C)(O)CC2)CCN1C1CC2(CCN(c3ccc(C(=O)NS(=O)(=O)c4ccc(NCC5CCC(C)(O)CC5)c([N+](=O)[O-])c4)c(N4c5cc6cc[nH]c6nc5O[C@H]5COCC[C@@H]54)c3)CC2)C1` (stereo partly drawn) [Example 109, 2-[(3R,8S)-2,5-dioxa-9,15,17-triazatetracyclo[8.7.0.0^{3,8}.0^{12,16}]heptadeca-1(10),11,13,16-tetraen-9-yl]-4-{2-[(2S)-2-(2-isopropoxyphenyl)-4-[(1s,4s)-4-hydroxy-4-methylcyclohexyl]piperazin-1-yl]-7-azaspiro[3.5]nonan-7-yl}-N-[3-nitro-4-({[(1r,4r)-4-hydroxy-4-methylcyclohexyl]methyl}amino)benzenesulfonyl]benzamide], the IC50 under setting [1] is 17.2 nM.

Take `COc1cc(CN2CCN(C3CC4(CCN(c5ccc(C(=O)NS(=O)(=O)c6cc7c(c([N+](=O)[O-])c6)N[C@@H](C6CCOCC6)CO7)c(N6c7cc8cc[nH]c8nc7O[C@H]7COCC[C@@H]76)c5)CC4)C3)[C@H](c3ccccc3C)C2)cnc1N1CCOCC1` [Example 142, 4-(2-((R)-4-((5-methoxy-6-morpholinopyridin-3-yl)methyl)-2-(o-tolyl)piperazin-1-yl)-7-azaspiro[3.5]nonan-7-yl)-N—(((S)-5-nitro-3-(tetrahydro-2H-pyran-4-yl)-3,4-dihydro-2H-benzo[b][1,4]oxazin-7-yl)sulfonyl)-2-((5aS,9aR)-6,7,9,9a-tetrahydro-1H-pyrano[3,4-b]pyrrolo[3′,2′:5,6]pyrido[3,2-e][1,4]oxazin-5(5aH)-yl)benzamide]: the 50% inhibitory concentration (IC50) (Homo sapiens, RS4-11, 72 h) amounted to 8 nM. As to `Cc1ccccc1[C@@H]1CN(C2CCC(C)(O)CC2)CCN1C1CC2(CCN(c3ccc(C(=O)NS(=O)(=O)c4cc5c(c([N+](=O)[O-])c4)N[C@H](C4CCOCC4)CO5)c(N4c5cc6cc[nH]c6nc5O[C@H]5COCC[C@@H]54)c3)CC2)C1` (stereo partly drawn) [Example 200, 4-(2-((R)-4-((1s,4S)-4-hydroxy-4-methylcyclohexyl)-2-(o-tolyl)piperazin-1-yl)-7-azaspiro[3.5]nonan-7-yl)-N-(((R)-5-nitro-3-(tetrahydro-2H-pyran-4-yl)-3,4-dihydro-2H-benzo[b][1,4]oxazin-7-yl)sulfonyl)-2-((5aS,9aR)-6,7,9,9a-tetrahydro-1H-pyrano[3,4-b]pyrrolo[3′,2′:5,6]pyrido[3,2-e][1,4]oxazin-5(5aH)-yl)benzamide], the concentration for half-maximal inhibition (IC50) under setting [1] worked out at 82.6 nM. On the same count and under the same terms, the result for `CC(C)Oc1ccccc1[C@H]1CN(C2CCC(N3CCOC[C@H]3C)CC2)CCN1C1CC2(CCN(c3ccc(C(=O)NS(=O)(=O)c4ccc(NCC5CCC(C)(O)CC5)c([N+](=O)[O-])c4)c(N4c5cc6cc[nH]c6nc5O[C@H]5COCC[C@@H]54)c3)CC2)C1` (stereo partly drawn) [Example 161, N-((4-((((1r,4r)-4-hydroxy-4-methylcyclohexyl)methyl)amino)-3-nitrophenyl)sulfonyl)-4-(2-((S)-2-(2-isopropoxyphenyl)-4-((1R,4S)-4-((R)-3-methylmorpholino)cyclohexyl)piperazin-1-yl)-7-azaspiro[3.5]nonan-7-yl)-2-((5aS,9aR)-6,7,9,9a-tetrahydro-1H-pyrano[3,4-b]pyrrolo[3′,2′:5,6]pyrido[3,2-e][1,4]oxazin-5(5aH)-yl)benzamide] reads 18.1 nM; that for `COc1nc(CN2CCN(C3CC4(CCN(c5ccc(C(=O)NS(=O)(=O)c6ccc(NCC7CCC(C)(O)CC7)c([N+](=O)[O-])c6)c(N6c7cc8cc[nH]c8nc7O[C@H]7COCC[C@@H]76)c5)CC4)C3)[C@@H](c3ccccc3OC(C)C)C2)cc2c1OCCC2(C)C` (stereo partly drawn) [Example 110, 2-[(3R,8S)-2,5-dioxa-9,15,17-triazatetracyclo[8.7.0.0^{3,8}.0^{12,16}]heptadeca-1(10),11,13,16-tetraen-9-yl]-4-{2-[(2S)-2-(2-isopropoxyphenyl)-4-({8-methoxy-4,4-dimethyl-2H,3H-pyrano[2,3-c]pyridin-6-yl}methyl)piperazin-1-yl]-7-azaspiro[3.5]nonan-7-yl}-N-[3-nitro-4-({[(1r,4r)-4-hydroxy-4-methylcyclohexyl]methyl}amino)benzenesulfonyl]benzamide hydrochloride], 23.8 nM; that for `COc1cc(CN2CCN(C3CC4(CCN(c5ccc(C(=O)NS(=O)(=O)c6cc7c(c([N+](=O)[O-])c6)N[C@H](C6CCOCC6)CO7)c(N6c7cc8cc[nH]c8nc7O[C@H]7COCC[C@@H]76)c5)CC4)C3)[C@H](c3ccccc3C)C2)cnc1N1CCOC[C@H]1C` [Example 188, 2-[(3R,8S)-2,5-dioxa-9,15,17-triazatetracyclo[8.7.0.0^{3,8}.0^{12,16}]heptadeca-1(10),11,13,16-tetraen-9-yl]-4-{2-[(2R)-4-({5-methoxy-6-[(3R)-3-methylmorpholin-4-yl]pyridin-3-yl}methyl)-2-(2-methylphenyl)piperazin-1-yl]-7-azaspiro[3.5]nonan-7-yl}-N-[(3R)-5-nitro-3-(oxan-4-yl)-3,4-dihydro-2H-1,4-benzoxazin-7-ylsulfonyl]benzamide], 11.1 nM. In the case of `CC(C)Oc1ccccc1[C@@H]1CN([C@@H]2COCc3cc(F)c(F)cc32)CCN1C1CC2(CCN(c3ccc(C(=O)NS(=O)(=O)c4cc5c(c([N+](=O)[O-])c4)N[C@H](C4CCOCC4)CO5)c(N4c5cc6cc[nH]c6nc5O[C@H]5COCC[C@@H]54)c3)CC2)C1` [Example 217, 4-(2-((R)-4-((S)-6,7-difluoroisochroman-4-yl)-2-(2-isopropoxyphenyl)piperazin-1-yl)-7-azaspiro[3.5]nonan-7-yl)-N-(((R)-5-nitro-3-(tetrahydro-2H-pyran-4-yl)-3,4-dihydro-2H-benzo[b][1,4]oxazin-7-yl)sulfonyl)-2-((5aS,9aR)-6,7,9,9a-tetrahydro-1H-pyrano[3,4-b]pyrrolo[3′,2′:5,6]pyrido[3,2-e][1,4]oxazin-5(5aH)-yl)benzamide], where the note is “Homo sapiens, RS4-11, 72 h”, the concentration for half-maximal inhibition (IC50) was 94.9 nM. With `CC(C)c1ccccc1[C@@H]1CN(Cc2ccc(F)c(F)c2)CCN1C1CC2(CCN(c3ccc(C(=O)NS(=O)(=O)c4cc5c(c([N+](=O)[O-])c4)N[C@H](C4CCOCC4)CO5)c(N4c5cc6cc[nH]c6nc5O[C@H]5COCC[C@@H]54)c3)CC2)C1` [Example 180, 4-{2-[(2R)-4-[(3,4-difluorophenyl)methyl]-2-(2-isopropylphenyl)piperazin-1-yl]-7-azaspiro[3.5]nonan-7-yl}-2-[(3R,8S)-2,5-dioxa-9,15,17-triazatetracyclo[8.7.0.0^{3,8}.0^{12,16}]heptadeca-1(10),11,13,16-tetraen-9-yl]-N-[(3R)-5-nitro-3-(oxan-4-yl)-3,4-dihydro-2H-1,4-benzoxazin-7-ylsulfonyl]benzamide], under setting [1], the IC50 stood at 7.5 nM.

(Values after patent US20250114374A1, “BCL-2 INHIBITORS” (Newave Pharmaceutical Inc., priority 2021, published 2025).)
